Tests used:
Plasmodium falciparum [1] = assay: NOVARTIS: Inhibition of Plasmodium falciparum W2 (drug-resistant) proliferation in erythrocyte-based infection assay; assay type: functional, organism-based; conditions: Plasmodium falciparum, W2; read-out: EC50
[2] = NOVARTIS: Cytotoxicity against human hepatocellular carcinoma cell line (Huh7); assay type: toxicity, cell-based, Huh-7; conditions: Huh7 cells (hepatocellular carcinoma cell line)
Plasmodium falciparum [3] = assay: NOVARTIS: Inhibition of Plasmodium falciparum 3D7 (drug-susceptible) proliferation in erythrocyte-based infection assay; assay type: functional, organism-based; conditions: Plasmodium falciparum, 3D7

SMILES | EC50 (Plasmodium falciparum [1]) | CC50 [2] | EC50 (Plasmodium falciparum [3])
COC(=O)C1=C(C)NC2=C(C(=O)CC(C)(C)C2)C1c1ccccc1[N+](=O)[O-] (stereo not given) | 5970 nM | > 91500 nM | > 12500 nM
CCCCCCn1c(=O)c(C(=O)NCC[N+](CC)(CC)CC)c(O)c2ccccc21 | 236 nM | > 100000 nM | 506 nM
CCCCNCCN1CCN(c2ccc(OC)cc2)C[C@@H]1c1ccccc1 | 26.7 nM | > 10000 nM | > 1280 nM
O=C(c1ccc(N2CC3CC(C2)c2cccc(=O)n2C3)c(NS(=O)(=O)c2ccc3c(c2)OCCO3)c1)N1CCN(c2ccccn2)CC1 (stereo not given) | 194 nM | > 100000 nM | 2020 nM
COc1ccccc1N1CCN(Cc2cc(C(C)C)c(C)cc2O)CC1 | 85 nM | 77400 nM | 623 nM
CCOC(=O)C1=C(C)N/C(=C\c2cc(C)n(-c3cccc(Br)c3)c2C)C1=O | > 926 nM | > 10000 nM | > 1250 nM
O=C(c1ccccc1)N1CCN(CC(O)COCc2ccccc2)CC1 (stereo not given) | 618 nM | > 10000 nM | > 1250 nM
CN(C)c1ccc(N/C=C/C(=O)C(C)(C)C)cc1 | 1580 nM | > 10000 nM | 1450 nM
COc1ccc(Nc2nc(Nc3ccc(OC)cc3)c3[nH]ccc3n2)cc1 | 678 nM | > 10000 nM | 667 nM
CC(C)(C)CC(=O)NCc1ccc(OC2CCN(CC(c3ccccc3)c3ccccc3)CC2)cc1 | < 8.77 nM | > 10000 nM | 1160 nM
COc1cc(NCCCC(C)N)c2ncccc2c1 (stereo not given) | 418 nM | 14400 nM | 215 nM
COc1ccc(CNCc2cc(-c3ccnc4cc(Cl)ccc34)ccc2O)c(OC)c1 | 38.3 nM | 59200 nM | 951 nM
COc1cc(-c2nc(-c3ccccc3)c(-c3ccc(O)cc3)[nH]2)cc(OC)c1O | > 1750 nM | > 10000 nM | 879 nM
COc1cc(Br)c(C2CC(=O)Nc3ccc4ccccc4c32)cc1OC (stereo not given) | 307 nM | 34400 nM | 386 nM
C=CCC1C=C(Cc2ccccc2)CC(CC=C)N1 (stereo not given) | 188 nM | 46000 nM | 4310 nM
CCOc1ccc2[nH]c(=O)c(CN(CCN(CC)CC)C(=S)NCCCN(CC)CC)cc2c1 | 1480 nM | > 100000 nM | 5560 nM
O=C(/C=C/c1ccccc1)c1c(-c2ccccc2)c2cc([N+](=O)[O-])ccc2[nH]c1=O | > 976 nM | > 10000 nM | > 1640 nM
N#Cc1nc(-c2ccccc2)c(-c2ccc(-c3nc(C#N)c(C#N)nc3-c3ccccc3)cc2)nc1C#N | 1160 nM | > 10000 nM | 1610 nM
CN1CCCN(C(=O)C2CC23CCN(Cc2ccc(N(C)c4ccccc4)cc2)CC3)CC1 (stereo not given) | 2580 nM | 20800 nM | 1320 nM
CCCCN(CCCC)S(=O)(=O)c1cc(Br)cc2c1N(C(C)=O)CC2 | 1090 nM | > 100000 nM | 3290 nM
COc1cc(NC(C)CCCN(Cc2ccc(OC)c(OC)c2)C(=O)Nc2cccc(Cl)c2Cl)c2ncccc2c1 (stereo not given) | 203 nM | 6290 nM | 691 nM
Oc1c2c(nc3cc(-c4ccc(Br)cc4)nn13)CCCC2 | 1300 nM | > 100000 nM | 522 nM
OCCSc1nc(-c2ccccc2)nc2ccc(F)cc12 | > 183 nM | > 10000 nM | > 1250 nM
CC(=O)Nc1cccc(NC(=O)CSc2ccc3nnc(-c4ccc(F)cc4)n3n2)c1 | > 1250 nM | > 10000 nM | > 1050 nM
COC(=O)c1c(-c2c(Cl)cccc2Cl)noc1C=CNc1ccc(Cl)cc1 | 10500 nM | > 100000 nM | > 1790 nM
